This note sets out measurements from patent EP4667463A1, “DOMIDE MOLECULAR GLUE DERIVATIVE AND USE THEREOF” (CSPC Megalith Biopharmaceutical Co., Ltd., priority 2023, dated 2024).

Read-outs that look alike come from different tables or passages of the source.

Data set [1] in a line: in vitro. Conditions: human, microsomes.
Method: (§3) The final concentration of the substrate in the incubation system was 1 µM, and the incubation time was 60 min. Sampling was performed at 0 min, 5 min, 15 min, 30 min, and 60 min. The reaction was stopped with glacial acetonitrile containing an internal standard (testosterone-d3 at a concentration of 10 ng/mL). Verapamil was used as a positive control. […] The natural logarithm of the remaining percentage was subjected to linear fitting with time to determine the elimination rate constant (k).
Data set [2] is described as follows: Metabolic stability in liver microsomes. Conditions: Dog liver microsomes, after 60 min of incubation.
Method: as §3
A short description of data set [3]: Metabolic stability in liver microsomes. The note with it: Mouse liver microsomes, after 60 min of incubation. On the technique in general: Liver microsomes are vesicles of endoplasmic reticulum, rich in cytochrome P450 enzymes.
Method: as §3
Data set [4] can be described thus: in vitro. The note with it: rat, microsomes.
Method: as §3
Data set [5] in a line: in vitro. The note with it: mouse, microsomes.
Method: as §3
Another data set deals with HL-60. The data set can be described thus: In vitro anti-tumor activity of molecular glue compounds, CellTiter-Lumi cell viability assay. It counts as cell-based. The note with it: Homo sapiens; HL-60 cells, 96 h incubation; read-out: Cell inhibitory activity (IC50 values) HL-60. The protocol:
(§1) Different tumor cells were all commercially available and used for evaluating the anti-tumor inhibitory activity of the compounds of the present disclosure. Various tumor cells were cultured until the cell confluency reached 80%-90%, with cell viability above 90% as determined by trypan blue exclusion. Then, the cells were plated. Specifically, after cell density optimization, 100 µL of each of the cell suspensions of HL-60 and SK-BR-3 cells (cell density: 3000 cells/well), Romas cells (cell density: 6000 cells/well), NCI-H929 cells (cell density: 4000 cells/well), and NCI-H82 cells (cell density: 5000 cells/well) was plated in a BeyoGold™ ultra-low attachment black clear-bottom 96-well plate (Cat. No.: FULA965-24pcs), and the plate was incubated overnight. The next day, after the adherent cells were adhered to the wall and suspension cells requiring aggregation were aggregated, 50 µL of culture medium was aspirated from each well of the 96-well plate. Then, the compounds diluted with the corresponding culture media were added. Specifically, the compounds were serially diluted at a 5-fold gradient starting from the highest concentration of 1 µM, with a final DMSO concentration of 1%o, and the test compounds were then added to the cell culture plate. The plate was incubated in an incubator at 37 °C with 5% carbon dioxide for 96 h. Before measurement, the CellTiter-Lumi™ luminescent cell viability assay reagent was equilibrated to room temperature in the dark. Then, 50 µL of the CellTiter-Lumi™ (Cat. No.: C0065XL) cell viability assay reagent was added to each well of the 96-well plate. The plate was shaken in the dark on a shaker at 300 rpm for 10 min to ensure complete cell lysis. After the reaction was completed, the luminescence was measured on a multi-mode microplate reader. The cell inhibition rate was determined according to the luminescence. Then, a cell viability curve was generated by Graphpad Prism 8.0, and the IC50 values were calculated. The compounds of the present disclosure were tested for activity by the method described above. Table 1. Cell inhibitory activity (IC50 values)

The next data set concerns SK-BR-3. The description is as above. The data set is classed as cell-based. Conditions: Homo sapiens, SK-BR-3 cells. The protocol:
as §1

The test system of a further data set is Romas. The description is as above. It counts as cell-based. Conditions: Romas cells, 96 h incubation; read-out: Cell inhibitory activity (IC50 values) Romas. The protocol: as §1
Another data set concerns NCI-H929. The data set is described as above. The data set is classed as cell-based. Conditions: Homo sapiens; NCI-H929 cells, 96 h incubation; read-out: Cell inhibitory activity (IC50 values) NCI-H929. The protocol: as §1
Another data set relates to NCI-H82. The data set is described as above. It counts as cell-based. Conditions: Homo sapiens; NCI-H82 cells, 96 h incubation; read-out: Cell inhibitory activity (IC50 values) NCI-H82. The protocol: as §1
Data set [6] in a line: Metabolic stability in liver microsomes. The note with it: Human liver microsomes, after 60 min of incubation.
Method: as §3
A short description of data set [7]: Metabolic stability in liver microsomes. Conditions: Monkey liver microsomes, after 60 min of incubation.
Method: as §3
Data set [8] in a line: Metabolic stability in liver microsomes. Conditions: Rat liver microsomes, after 60 min of incubation.
Method: as §3
The nature of data set [9]: in vitro. Conditions: monkey, microsomes.
Method: as §3
The nature of data set [10]: in vitro. The note with it: dog, microsomes.
Method: as §3
Another data set has as its system HCT-15. The experiment in a line: Activity in cell strains with high expression of efflux pump proteins, cell viability assay. The data set is classed as cell-based. Conditions: Homo sapiens, HCT-15 cells, 96 h. As to the method:
(§2) Three types of cells used for evaluating the activity of the compounds of the present disclosure against a cell strain with high expression of efflux pump proteins were all purchased from Nanjing Cobioer Biosciences Co., Ltd., and all the cells were derived from ATCC (American Type Culture Collection). Various tumor cells were cultured until the cell confluency reached 80%-90%, with cell viability above 90% as determined by trypan blue exclusion. Then, the cells were plated. Specifically, after cell density optimization, 75 µL of each of three cell suspensions of SNU-5, HCT-15, and AsPc-1 cells (3000 cells/well) was inoculated into a BeyoGold™ ultra-low attachment black clear-bottom 96-well plate (Cat. No.: FULA965-24pcs), and the plate was incubated overnight in a cell incubator at 37 °C with carbon dioxide. The next day, after the cells adhered to the wall, 75 µL of the compounds diluted with the corresponding culture media were added. Specifically, the compounds were serially diluted at a 5-fold gradient starting from the highest concentration of 1 µM, with a final DMSO concentration of 1‰, and the test compounds were then added to the cell culture plate. The plate was incubated in an incubator at 37 °C with 5% carbon dioxide for 96 h. Before measurement, the CellTiter-Lumi™ luminescent cell viability assay reagent was equilibrated to room temperature in the dark. Then, 50 µL of the CellTiter-Lumi™ (Cat. No.: C0065XL) cell viability assay reagent was added to each well of the 96-well plate. The plate was shaken in the dark on a shaker at 300 rpm for 10 min to ensure complete cell lysis. After the reaction was completed, the chemiluminescence intensity was measured on a multi-mode microplate reader. The cell viability inhibition rate was determined according to the chemiluminescence intensity. Then, a cell viability curve was generated by Graphpad Prism 8.0, and the IC50 values were calculated. Table 3. Activity of the compounds of the present disclosure in cell strains with high expression of efflux pump proteins (IC50 value)

In another data set the test system is SNU-5. The description is as above. The data set is classed as cell-based. Conditions: Homo sapiens, SNU-5 cells, 96 h. As to the method: as §2
For the next data set, the system named is AsPc-1. The data set is described as above. It counts as cell-based. Conditions: Homo sapiens, ASPC1, AsPc-1 cells, 96 h. The protocol: as §2
A further data set addresses T1, GSPT1 protein (Homo sapiens, UniProt P15170+Q96SW2).
T1 construct: An HiBiT protein tag was added to the N-terminus of the endogenous GSPT1 protein of HEK293T cells by CRISPR gene editing technology; endogenous in cells; host or cells: HEK293T (CRISPR knock-in HiBiT-GSPT1 cell strain)
The data set can be described thus: GSPT1 protein degradation, Nano-Glo HiBiT assay in HiBiT-GSPT1 HEK293T cells. It counts as cell-based. Conditions: 24 h. As to the method:
This experiment was performed to evaluate the targeting property of the compounds. An HiBiT protein tag was added to the N-terminus of the endogenous GSPT1 protein of HEK293T cells by CRISPR gene editing technology, so as to construct a HiBiT-GSPT1 HEK293T stably transfected cell strain. HiBiT-GSPT1 HEK293T cells were cultured in DMEM containing 10% FBS and 1% PenStrep. When the cell confluency reached 80%-90%, the cells were digested with trypsin, pipetted into single cells, and resuspended in a corresponding culture medium to form a cell suspension. The cells were counted using Cell Countess (NanoEnTek, #Cat. EVE-MC2), and the cell viability was determined by trypan blue exclusion to ensure that the cell viability was above 90%. The cells were plated in a 384-well plate (Corning, #Cat. 3764) at 10,000 cells/40 µL of cell suspension per well, and cultured in an incubator at 37 °C with 5% CO2 overnight. The next day, the test compounds were added to the 384-well plate under conditions of 30 µM highest concentration, 5-fold serial dilution, and 1‰ DMSO. The plate was incubated in the incubator at 37 °C with 5% CO2 for another 24 h. Before measurement, the Nano-Glo HiBiT reagent was equilibrated to room temperature, the LgBiT protein was diluted with the Nano-Glo HiBiT Lytic buffer according to a dilution ratio of 1:100, and the Nano-Glo@HiBiT Lytic substrate was diluted to an appropriate volume according to a ratio of 1:50. After the cell culture plate was equilibrated at room temperature for 10 min, 40 µL of Nano-Glo HiBiT Lytic assay reagent was added to each well. The plate was shaken on a microplate shaker at a rotation speed of 300 rpm for 3 min in the dark. After the reaction was completed, the luminescencevalues were read on BMG PHERASTAR FS (BMG LRBTECH, Cat. No.: PHERAstar FSX), and the DC50 values were calculated using GraphPad Prism 8.0. Table 2. GSPT1 protein degradation

Where [11] appears, read: 96 h incubation, read-out: Cell inhibitory activity (IC50 values) SK-BR-3.

T1 sequence (P15170 whole entry): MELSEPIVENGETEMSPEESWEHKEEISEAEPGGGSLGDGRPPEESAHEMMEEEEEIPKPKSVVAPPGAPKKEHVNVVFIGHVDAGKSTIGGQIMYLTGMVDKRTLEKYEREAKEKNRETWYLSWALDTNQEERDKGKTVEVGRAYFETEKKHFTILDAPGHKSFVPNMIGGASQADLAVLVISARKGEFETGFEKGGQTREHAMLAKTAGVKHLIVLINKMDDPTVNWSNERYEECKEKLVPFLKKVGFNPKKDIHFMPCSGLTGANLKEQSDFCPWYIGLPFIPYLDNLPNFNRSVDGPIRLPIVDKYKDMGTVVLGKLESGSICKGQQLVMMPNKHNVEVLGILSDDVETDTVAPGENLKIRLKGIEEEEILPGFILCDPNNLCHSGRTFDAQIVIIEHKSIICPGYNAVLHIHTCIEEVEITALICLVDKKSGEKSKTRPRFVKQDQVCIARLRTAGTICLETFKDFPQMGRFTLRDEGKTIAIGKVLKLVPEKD
T1 sequence (Q96SW2 whole entry): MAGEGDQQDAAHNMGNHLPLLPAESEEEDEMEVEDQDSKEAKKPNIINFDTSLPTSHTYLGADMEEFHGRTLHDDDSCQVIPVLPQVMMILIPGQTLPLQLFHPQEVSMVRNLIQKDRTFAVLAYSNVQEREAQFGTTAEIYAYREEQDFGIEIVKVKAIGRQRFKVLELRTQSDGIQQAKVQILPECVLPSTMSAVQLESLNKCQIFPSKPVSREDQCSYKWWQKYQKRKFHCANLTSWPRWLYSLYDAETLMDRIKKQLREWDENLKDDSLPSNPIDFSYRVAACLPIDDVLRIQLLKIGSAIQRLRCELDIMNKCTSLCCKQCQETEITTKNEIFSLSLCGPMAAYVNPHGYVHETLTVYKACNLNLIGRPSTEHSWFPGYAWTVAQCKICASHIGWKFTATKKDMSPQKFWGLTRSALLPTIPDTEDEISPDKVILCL
T1 sequence (Q16531 whole entry partner): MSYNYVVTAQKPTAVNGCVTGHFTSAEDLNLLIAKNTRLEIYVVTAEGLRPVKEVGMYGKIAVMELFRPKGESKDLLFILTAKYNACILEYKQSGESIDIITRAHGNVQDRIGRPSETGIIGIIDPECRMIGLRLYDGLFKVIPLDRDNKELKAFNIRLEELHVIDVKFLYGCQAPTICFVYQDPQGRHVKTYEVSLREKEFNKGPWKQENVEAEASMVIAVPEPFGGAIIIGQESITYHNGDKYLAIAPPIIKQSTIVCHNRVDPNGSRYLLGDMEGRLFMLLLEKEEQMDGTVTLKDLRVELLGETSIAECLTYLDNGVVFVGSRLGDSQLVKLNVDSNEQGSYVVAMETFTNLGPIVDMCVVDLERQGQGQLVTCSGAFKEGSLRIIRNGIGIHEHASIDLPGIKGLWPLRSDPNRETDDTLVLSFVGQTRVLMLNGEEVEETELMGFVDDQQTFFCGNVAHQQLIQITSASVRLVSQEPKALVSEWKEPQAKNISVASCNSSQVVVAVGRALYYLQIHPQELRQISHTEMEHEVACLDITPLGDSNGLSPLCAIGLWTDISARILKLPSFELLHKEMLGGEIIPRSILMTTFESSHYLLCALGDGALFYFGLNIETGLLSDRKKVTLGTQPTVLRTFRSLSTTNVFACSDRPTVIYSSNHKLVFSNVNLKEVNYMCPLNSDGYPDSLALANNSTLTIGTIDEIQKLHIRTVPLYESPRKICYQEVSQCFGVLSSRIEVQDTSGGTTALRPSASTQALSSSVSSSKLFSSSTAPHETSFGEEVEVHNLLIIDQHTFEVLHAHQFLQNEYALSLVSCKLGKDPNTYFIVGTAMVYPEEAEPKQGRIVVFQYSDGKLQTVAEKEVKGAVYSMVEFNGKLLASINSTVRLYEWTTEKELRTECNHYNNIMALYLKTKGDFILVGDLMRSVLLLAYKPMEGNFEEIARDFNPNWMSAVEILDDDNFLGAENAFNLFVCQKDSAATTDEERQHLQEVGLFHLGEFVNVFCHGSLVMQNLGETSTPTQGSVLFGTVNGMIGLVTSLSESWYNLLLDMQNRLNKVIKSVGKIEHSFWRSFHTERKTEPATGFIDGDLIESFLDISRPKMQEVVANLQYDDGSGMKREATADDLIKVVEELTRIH

The term CLint scaled denotes a measure of how fast metabolising enzymes remove a compound, apart from limits set by blood flow. In general, half-life refers to the time in which the quantity being followed falls by half. For orientation: IC50 means the midpoint of a concentration-inhibition curve. With `O=C1CCC(N2Cc3cc(CNC(=O)Nc4ccc(CCCOC5CCNCC5)c(Cl)c4)ccc3C2=O)C(=O)N1` (stereo not shown) [Compound B61], the CLint scaled at 1 µM was 7.03 mL/min/kg in “in vitro [1]”; 19.8 mL/min/kg in “in vitro [4]”; 32.2 mL/min/kg in the data set “in vitro [5]”; 13.7 mL/min/kg in the data set “in vitro [9]”; 11.8 mL/min/kg in the data set “in vitro [10]”. Moreover, the CLint scaled at 1 h, 1 µM in “in vitro [1]” stood at 5.27 mL/min/kg; in the data set “in vitro [4]”, 14.6 mL/min/kg; in “in vitro [5]” it was 23.7 mL/min/kg; in “in vitro [9]”, 10.5 mL/min/kg; in “in vitro [10]”, 8.55 mL/min/kg. Moreover, the half-life at 1 µM in “in vitro [1]” came out at 4.12 h; in “in vitro [4]”, 2.08 h; in the data set “in vitro [5]”, 2.9 h; in the data set “in vitro [9]”, 2.47 h; in “in vitro [10]” it was 4.88 h. Also, the “Parent drug remaining %” value came to 86.4% in data set [2]; 79.8% in data set [3]; 83.4% in data set [6]; 79.4% in data set [7]; 71.0% in data set [8]. For the same molecule, the IC50 in the data set on HL-60 is less than 10 nM; in the data set on SK-BR-3 (setting [11]), less than 10 nM; with Romas, less than 10 nM; with NCI-H929 it was less than 10 nM; in the data set on NCI-H82, 10 to 50 nM.

As usually defined, the DC50 is the concentration at which degradation of the target reaches its halfway point. With `CNCCOCCc1ccc(NC(=O)NCc2ccc3c(c2)CN(C2CCC(=O)NC2=O)C3=O)cc1Cl` (stereo not shown) [Smol006, reference compound], the IC50 in the data set on HCT-15 was more than 1000 nM; in the data set with SNU-5, more than 1000 nM; with AsPc-1 it was 50 to 200 nM; with HL-60, 10 to 50 nM; in the data set on SK-BR-3 (setting [11]), more than 100 nM; in the data set with SK-BR-3 (read-out: SK-BR-3 IC50), 32.3 nM. Also, the IC50 in the data set with Romas is more than 100 nM; in the data set with NCI-H929, 50 to 100 nM; in the data set on NCI-H82, 50 to 100 nM. Further, the DC50 on GSPT1 protein was determined as 274 nM.

As for `O=C1CCC(N2Cc3cc(CNC(=O)Nc4ccc(CCCOC5CNC5)c(Cl)c4)ccc3C2=O)C(=O)N1` (stereo not shown) [Compound B63], the CLint scaled at 1 µM in “in vitro [1]” came to 0.19 mL/min/kg; in the data set “in vitro [4]”, 1.39 mL/min/kg; in the data set “in vitro [9]”, 0.257 mL/min/kg. In addition, the CLint scaled at 1 h, 1 µM in “in vitro [1]” was determined as 0.189 mL/min/kg; in “in vitro [4]”, 1.35 mL/min/kg; in the data set “in vitro [9]”, 0.255 mL/min/kg. In addition, the half-life at 1 µM in the data set “in vitro [1]” stood at 152 h; in the data set “in vitro [4]” it was 29.8 h; in the data set “in vitro [9]”, 132 h. The “Parent drug remaining %” value was 103% in data set [2]; 102% in [3]; 98.8% in data set [6]; 101% in [7]; 94.9% in data set [8]. The IC50 is less than 10 nM in the data set on HL-60; less than 10 nM with SK-BR-3 (setting [11]); 10 to 50 nM with Romas; less than 10 nM with NCI-H929; 10 to 50 nM with NCI-H82.

As to `CC(C)(C)OC(=O)N1CCCC(OCCCc2ccc(NC(=O)NCc3ccc4c(c3)CN(C3CCC(=O)NC3=O)C4=O)cc2Cl)C1` (stereo not shown) [Compound A19], the IC50 in the data set with SK-BR-3 (read-out: SK-BR-3 IC50) amounted to 1.22 nM. Further, the DC50 at GSPT1 protein turned out to be 16 nM.

As for `O=C1CCC(N2Cc3cc(CNC(=O)Nc4ccc(COCCC5CCCNC5)c(Cl)c4)ccc3C2=O)C(=O)N1` (stereo not shown) [Compound B9], the IC50 is less than 10 nM in the data set with HL-60; 10 to 50 nM in the data set with SK-BR-3 (setting [11]); 10 to 50 nM in the data set with Romas; less than 10 nM in the data set with NCI-H929; 10 to 50 nM in the data set on NCI-H82.
